# Test results reported in US8710065B2, “Tricyclic inhibitors of kinases” (AbbVie Inc., priority 2011, dated 2014).
# Molecular target: T1, GST-tagged-Wee1 kinase (Homo sapiens, UniProt P30291)
# T1 construct: purchased Carnabio (Carna Biosciences) 05-177
# Experiment: Wee1 time-resolved fluorescence equilibrium binding assay (displacement of Oregon Green-labeled ATP-competitive kinase probe)
# Settings: read-out: Wee-1 inhibition (Ki)
# Procedure, shortened: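 Ki values derive from competitive displacement, under equilibrium, of a fast-reversible ATP-site Oregon Green kinase probe from GST-tagged Wee1, detected by time-resolved fluorescence.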
# T1 sequence (P30291 whole entry): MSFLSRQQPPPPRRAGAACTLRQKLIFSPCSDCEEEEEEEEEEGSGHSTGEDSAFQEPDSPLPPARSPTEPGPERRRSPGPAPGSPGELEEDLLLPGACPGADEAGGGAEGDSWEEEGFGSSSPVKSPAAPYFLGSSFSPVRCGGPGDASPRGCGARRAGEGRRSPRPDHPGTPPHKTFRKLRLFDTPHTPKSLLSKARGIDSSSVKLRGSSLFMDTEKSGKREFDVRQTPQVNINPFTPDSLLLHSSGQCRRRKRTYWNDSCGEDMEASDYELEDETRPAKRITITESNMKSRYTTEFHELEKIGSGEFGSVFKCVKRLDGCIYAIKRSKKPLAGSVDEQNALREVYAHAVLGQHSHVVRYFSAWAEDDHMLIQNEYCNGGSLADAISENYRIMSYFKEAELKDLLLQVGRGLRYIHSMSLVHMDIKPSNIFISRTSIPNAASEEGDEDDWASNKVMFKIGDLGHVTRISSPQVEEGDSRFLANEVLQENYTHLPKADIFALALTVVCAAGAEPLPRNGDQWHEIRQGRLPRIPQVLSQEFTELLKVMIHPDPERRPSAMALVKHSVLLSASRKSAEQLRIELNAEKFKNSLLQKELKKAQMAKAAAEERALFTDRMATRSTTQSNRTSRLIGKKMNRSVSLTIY
row,Compound,Ki [nM]
1,"CC1(C)CN(CCCC(F)(F)F)Cc2cc(Nc3ncc4c(=O)n(-c5ccccc5Cl)c5nccn5c4n3)ccc21 [Example 145, 6-(2-chlorophenyl)-2-{[4,4-dimethyl-2-(4,4,4-trifluorobutyl)-1,2,3,4-tetrahydroisoquinolin-7-yl]amino}imidazo[1,2-a]pyrimido[5,4-e]pyrimidin-5(6H)-one]",< 10
2,"CN1Cc2cc(Nc3ncc4c(=O)n(-c5ccccc5Cl)c5nccn5c4n3)ccc2C1(C)C [Example 146, 6-(2-chlorophenyl)-2-[(1,1,2-trimethyl-2,3-dihydro-1H-isoindol-5-yl)amino]imidazo[1,2-a]pyrimido[5,4-e]pyrimidin-5(6H)-one]",< 10
3,"CN1C(C)(C)c2ccc(Nc3ncc4c(=O)n(-c5ccccc5Cl)c5nccn5c4n3)cc2C1(C)C [Example 147, 6-(2-chlorophenyl)-2-[(1,1,2,3,3-pentamethyl-2,3-dihydro-1H-isoindol-5-yl)amino]imidazo[1,2-a]pyrimido[5,4-e]pyrimidin-5(6H)-one]",< 10
4,"CCN(CC)CCCOc1ccc(Nc2ncc3c(=O)n(-c4c(Cl)cccc4Cl)c4nccn4c3n2)cc1F [Example 149, 6-(2,6-dichlorophenyl)-2-({4-[3-(diethylamino)propoxy]-3-fluorophenyl}amino)imidazo[1,2-a]pyrimido[5,4-e]pyrimidin-5(6H)-one]",< 10
5,"CN1CCc2cc(Nc3ncc4c(=O)n(-c5c(Cl)cccc5Cl)c5nccn5c4n3)ccc2C1(C)C [Example 150, 6-(2,6-dichlorophenyl)-2-[(1,1,2-trimethyl-1,2,3,4-tetrahydroisoquinolin-6-yl)amino]imidazo[1,2-a]pyrimido[5,4-e]pyrimidin-5(6H)-one]",< 10
6,"O=c1c2cnc(Nc3ccc(N4C[C@@H]5C[C@H]4CN5)cc3)nc2n2ccnc2n1-c1c(Cl)cccc1Cl [Example 151, 2-({4-[(1S,45)-2,5-diazabicyclo[2.2.1]hept-2-yl]phenyl}amino)-6-(2,6-dichlorophenyl)imidazo[1,2-a]pyrimido[5,4-e]pyrimidin-5(6H)-one]",< 10
7,"CN1Cc2cc(Nc3ncc4c(=O)n(-c5c(Cl)cccc5Cl)c5nccn5c4n3)ccc2C(C)(C)C1 [Example 152, 6-(2,6-dichlorophenyl)-2-[(2,4,4-trimethyl-1,2,3,4-tetrahydroisoquinolin-7-yl)amino]imidazo[1,2-a]pyrimido[5,4-e]pyrimidin-5(6H)-one]",< 10
8,"CC(C)c1cc(Nc2ncc3c(=O)n(-c4ccccc4Cl)c4nccn4c3n2)ccc1N1CCN(C)CC1 [Example 157, 6-(2-chlorophenyl)-2-{[4-(4-methylpiperazin-1-yl)-3-(propan-2-yl)phenyl]amino}imidazo[1,2-a]pyrimido[5,4-e]pyrimidin-5(6H)-one]",< 10
9,"CC(=O)N1CCN(c2ccc(Nc3ncc4c(=O)n(-c5c(F)cccc5Cl)c5nccn5c4n3)cc2)CC1 [Example 158, 2-{[4-(4-acetylpiperazin-1-yl)phenyl]amino}-6-(2-chloro-6-fluorophenyl)imidazo[1,2-a]pyrimido[5,4-e]pyrimidin-5(6H)-one]",< 10
10,"CC1(C)CNCc2cc(Nc3ncc4c(=O)n(-c5c(F)cccc5Cl)c5nccn5c4n3)ccc21 [Example 159, 6-(2-chloro-6-fluorophenyl)-2-[(4,4-dimethyl-1,2,3,4-tetrahydroisoquinolin-7-yl)amino]imidazo[1,2-a]pyrimido[5,4-e]pyrimidin-5(6H)-one]",10 to 100
11,"CCN1Cc2cc(Nc3ncc4c(=O)n(-c5ccccc5Cl)c5nccn5c4n3)ccc2C(C)(C)C1 [Example 161, 6-(2-chlorophenyl)-2-[(2-ethyl-4,4-dimethyl-1,2,3,4-tetrahydroisoquinolin-7-yl)amino]imidazo[1,2-a]pyrimido[5,4-e]pyrimidin-5(6H)-one]",< 10
12,"CC1(C)CN(CC(F)(F)F)Cc2cc(Nc3ncc4c(=O)n(-c5ccccc5Cl)c5nccn5c4n3)ccc21 [Example 162, 6-(2-chlorophenyl)-2-{[4,4-dimethyl-2-(2,2,2-trifluoroethyl)-1,2,3,4-tetrahydroisoquinolin-7-yl]amino}imidazo[1,2-a]pyrimido[5,4-e]pyrimidin-5(6H)-one]",10 to 100
13,"CC1(C)CN(Cc2ccc(-n3ccnc3)cc2)Cc2cc(Nc3ncc4c(=O)n(-c5ccccc5Cl)c5nccn5c4n3)ccc21 [Example 163, 6-(2-chlorophenyl)-2-({2-[4-(1H-imidazol-1-yl)benzyl]-4,4-dimethyl-1,2,3,4-tetrahydroisoquinolin-7-yl}amino)imidazo[1,2-a]pyrimido[5,4-e]pyrimidin-5(6H)-one]",< 10
14,"CC1(C)CN(CC2CCN(Cc3ccccc3)CC2)Cc2cc(Nc3ncc4c(=O)n(-c5ccccc5Cl)c5nccn5c4n3)ccc21 [Example 164, 2-({2-[(1-benzylpiperidin-4-yl)methyl]-4,4-dimethyl-1,2,3,4-tetrahydroisoquinolin-7-yl}amino)-6-(2-chlorophenyl)imidazo[1,2-a]pyrimido[5,4-e]pyrimidin-5(6H)-one]",< 10
15,"O=c1c2cnc(Nc3ccc(C4CCCCC4)cc3)nc2n2ccnc2n1-c1c(Cl)cccc1Cl [Example 167, 2-[(4-cyclohexylphenyl)amino]-6-(2,6-dichlorophenyl)imidazo[1,2-a]pyrimido[5,4-e]pyrimidin-5(6H)-one]",10 to 100
16,"CC1(C)CN(CC(F)(F)F)Cc2cc(Nc3ncc4c(=O)n(-c5c(Cl)cccc5Cl)c5nccn5c4n3)ccc21 [Example 170, 6-(2,6-dichlorophenyl)-2-{[4,4-dimethyl-2-(2,2,2-trifluoroethyl)-1,2,3,4-tetrahydroisoquinolin-7-yl]amino}imidazo[1,2-a]pyrimido[5,4-e]pyrimidin-5(6H)-one]",10 to 100

# More lines, now with the values ahead:
row,Ki [nM],Compound
1,< 10,"COc1cc(Nc2ncc3c(=O)n(-c4c(Cl)cccc4Cl)c4nccn4c3n2)ccc1N1CCN(C)CC1 [Example 148, 6-(2,6-dichlorophenyl)-2-{[3-methoxy-4-(4-methylpiperazin-1-yl)phenyl]amino}imidazo[1,2-a]pyrimido[5,4-e]pyrimidin-5(6H)-one]"
2,< 10,"O=c1c2cnc(Nc3ccc(N4CCC(F)(F)CC4)cc3)nc2n2ccnc2n1-c1c(Cl)cccc1Cl [Example 153, 6-(2,6-dichlorophenyl)-2-{[4-(4,4-difluoropiperidin-1-yl)phenyl]amino}imidazo[1,2-a]pyrimido[5,4-e]pyrimidin-5(6H)-one]"
3,< 10,"O=c1c2cnc(Nc3ccc(N4CCCC(F)(F)C4)cc3)nc2n2ccnc2n1-c1c(Cl)cccc1Cl [Example 154, 6-(2,6-dichlorophenyl)-2-{[4-(3,3-difluoropiperidin-1-yl)phenyl]amino}imidazo[1,2-a]pyrimido[5,4-e]pyrimidin-5(6H)-one]"
4,< 10,"CC(C)N1CCN(c2ccc(Nc3ncc4c(=O)n(-c5c(Cl)cccc5Cl)c5nccn5c4n3)cc2F)CC1 [Example 155, 6-(2,6-dichlorophenyl)-2-({3-fluoro-4-[4-(propan-2-yl)piperazin-1-yl]phenyl}amino)imidazo[1,2-a]pyrimido[5,4-e]pyrimidin-5(6H)-one]"
5,< 10,"O=c1c2cnc(Nc3ccc(N4CCNCC4)c(C(F)(F)F)c3)nc2n2ccnc2n1-c1c(Cl)cccc1Cl [Example 156, 6-(2,6-dichlorophenyl)-2-{[4-(piperazin-1-yl)-3-(trifluoromethyl)phenyl]amino}imidazo[1,2-a]pyrimido[5,4-e]pyrimidin-5(6H)-one]"
6,< 10,"O=c1c2cnc(Nc3ccc4c(c3)CNCC43CC3)nc2n2ccnc2n1-c1c(Cl)cc(F)cc1Cl [Example 160, 6-(2,6-dichloro-4-fluorophenyl)-2-(2′,3′-dihydro-1′H-spiro[cyclopropane-1,4′-isoquinolin]-7′-ylamino)imidazo[1,2-a]pyrimido[5,4-e]pyrimidin-5(6H)-one]"
7,< 10,"CC(=O)N1Cc2cc(Nc3ncc4c(=O)n(-c5c(Cl)cc(F)cc5Cl)c5nccn5c4n3)ccc2C2(CC2)C1 [Example 165, 2-[(2′-acetyl-2′,3′-dihydro-1′H-spiro[cyclopropane-1,4′-isoquinolin]-7′-yl)amino]-6-(2,6-dichloro-4-fluorophenyl)imidazo[1,2-a]pyrimido[5,4-e]pyrimidin-5(6H)-one]"
8,< 10,"O=c1c2cnc(Nc3ccc(N4CCC(O)CC4)cc3)nc2n2ccnc2n1-c1c(Cl)cccc1Cl [Example 166, 6-(2,6-dichlorophenyl)-2-{[4-(4-hydroxypiperidin-1-yl)phenyl]amino}imidazo[1,2-a]pyrimido[5,4-e]pyrimidin-5(6H)-one]"
9,< 10,"O=c1c2cnc(Nc3ccc(C4CCNC4)cc3)nc2n2ccnc2n1-c1c(Cl)cccc1Cl (centres unmarked) [Example 168, 6-(2,6-dichlorophenyl)-2-{[4-(pyrrolidin-3-yl)phenyl]amino}imidazo[1,2-a]pyrimido[5,4-e]pyrimidin-5(6H)-one]"
10,< 10,"O=c1c2cnc(Nc3ccc(N4CCOCC4)cc3)nc2n2ccnc2n1-c1c(Cl)cccc1Cl [Example 169, 6-(2,6-dichlorophenyl)-2-{[4-(morpholin-4-yl)phenyl]amino}imidazo[1,2-a]pyrimido[5,4-e]pyrimidin-5(6H)-one]"
11,< 10,"O=C(C1CC1)N1Cc2cc(Nc3ncc4c(=O)n(-c5c(Cl)cc(F)cc5Cl)c5nccn5c4n3)ccc2C2(CC2)C1 [Example 171, 2-{[2′-(cyclopropylcarbonyl)-2′,3′-dihydro-1′H-spiro[cyclopropane-1,4′-isoquinolin]-7′-yl]amino}-6-(2,6-dichloro-4-fluorophenyl)imidazo[1,2-a]pyrimido[5,4-e]pyrimidin-5(6H)-one]"
12,< 10,"CS(=O)(=O)N1Cc2cc(Nc3ncc4c(=O)n(-c5c(Cl)cc(F)cc5Cl)c5nccn5c4n3)ccc2C2(CC2)C1 [Example 172, 6-(2,6-dichloro-4-fluorophenyl)-2-{[2′-(methylsulfonyl)-2′,3′-dihydro-1′H-spiro[cyclopropane-1,4′-isoquinolin]-7′-yl]amino}imidazo[1,2-a]pyrimido[5,4-e]pyrimidin-5(6H)-one]"
13,< 10,"O=c1c2cnc(Nc3ccc(N4CCNCC4)nc3)nc2n2ccnc2n1-c1c(Cl)cc(F)cc1Cl [Example 173, 6-(2,6-dichloro-4-fluorophenyl)-2-{[6-(piperazin-1-yl)pyridin-3-yl]amino}imidazo[1,2-a]pyrimido[5,4-e]pyrimidin-5(6H)-one]"
